# Experimental data published in article PMC6792352, “Limited Chemical Structural Diversity Found to Modulate Thyroid Hormone Receptor in the Tox21 Chemical Library” (Environmental Health Perspectives, 2019).
# Structures can show the parent of a compound that is named as a salt.
# Experiment: in vitro
# Conditions: rat, gh3-tre-luc cells, AC50 (uM) modified / 1000
row,Structure (SMILES),CC50 at 24 h [µM]
1,N=C(N)N [Guanidine carbonate],> 50
2,O=C[C@H](O)[C@@H](O)[C@@H](O)[C@H](O)CO [Galactose],> 50
3,CC(C)NCC(O)c1ccc2ccccc2c1 (stereo not drawn) [Pronethalol],> 50
4,"CC(C)CCCC(C)CCO (stereo not drawn) [3,7-Dimethyloctan-1-ol]",> 90
5,Oc1ccc(-c2ccccc2)cc1Cl [2-Chloro-4-phenylphenol],81
6,CC(C)NC(=O)c1ccccc1N [2-Amino-N-(1-methylethyl)benzamide],> 90
7,CCCOc1cc(N)ccc1C(=O)OCCN(CC)CC [Propoxycaine hydrochloride],> 20
8,CCOc1ccc(C(C)(C)COCc2cccc(Oc3ccccc3)c2)cc1 [Etofenprox],> 90
9,CC[C@H]1OC(=O)[C@H](C)[C@@H](O[C@H]2C[C@@](C)(OC)[C@@H](O)[C@H](C)O2)[C@H](C)[C@@H](O[C@@H]2O[C@H](C)C[C@H](N(C)C)[C@H]2O)[C@](C)(O)C[C@@H](C)C(=O)[C@H](C)[C@@H](O)[C@]1(C)O [Erythromycin],> 70
10,CC[C@@]1(O)C(=O)OCc2c1cc1n(c2=O)Cc2cc3c(CN(C)C)c(O)ccc3nc2-1 [Topotecan hydrochloride],> 50
11,CN(C)CCOC(=O)C(c1ccccc1)C1(O)CCCC1 (stereo not drawn) [Cyclopentolate hydrochloride],> 50
12,Cc1cccc2cccnc12 [8-Methylquinoline],> 90
13,Nc1cccc(O)c1 [3-Aminophenol],> 90
14,N#CC(C#N)=NNc1cccc(Cl)c1 [Carbonyl cyanide chlorophenylhydrazone],1.97
15,COCCOCCOC [Diethylene glycol dimethyl ether],> 90
16,Cn1c(=O)c2c(ncn2CCOC(=O)C(C)(C)Oc2ccc(Cl)cc2)n(C)c1=O [Etofylline clofibrate],> 50
17,ClC(Cl)(Br)Br [Dibromodichloromethane],> 90
18,CN[C@@H]1[C@@H](O)[C@@H](O[C@@H]2[C@H](O)[C@H](O[C@H]3OC(CN)=CC[C@H]3N)[C@@H](N)C[C@H]2N)OC[C@]1(C)O [Pentisomicin],> 50
19,CCCCN(CC)C(=O)SCCC [Pebulate],> 90
20,CC1CCc2cc(F)cc3c(=O)c(C(=O)O)cn1c23 (stereo not drawn) [Flumequine],> 50
21,"CC(C)(C)C(=O)Cl [2,2-Dimethylpropanoyl chloride]",> 90
22,Clc1ccc2nsnc2c1NC1=NCCN1 [Tizanidine],> 50
23,Nc1nnc(-c2cccc(Cl)c2Cl)c(N)n1 [Lamotrigine],> 50
24,CCOC(=O)COc1cc(-n2ncc(C(F)(F)F)c(C)c2=O)c(F)cc1Cl [Flufenpyr-ethyl],> 90
25,O=[N+]([O-])c1ccccc1C(F)(F)F [1-Nitro-2-(trifluoromethyl)benzene],> 90

row,Structure (SMILES),CC50 at 24 h [µM]
1,"CN(C)CCCN(C)C [N,N,N',N'-Tetramethyl-1,3-propanediamine]",> 5
2,CC(=O)OCC(=O)[C@@]1(O)CC[C@H]2[C@@H]3C[C@H](C)C4=CC(=O)C=C[C@]4(C)[C@H]3[C@@H](O)C[C@@]21C [Methylprednisolone acetate],> 50
3,IC(I)I [Iodoform],> 90
4,C(COCC1CO1)OCC1CO1 (stereo not drawn) [Ethylene glycol diglycidyl ether],> 90
5,O=C1CCCN1C1CCCCC1 [1-Cyclohexylpyrrolidin-2-one],> 90
6,"COc1ccc(OC)c(CC(C)N)c1 (stereo not drawn) [2,5-Dimethoxyamphetamine hydrochloride]",> 100
7,CN(C)C(=O)Nc1ccccc1 [Fenuron],> 90
8,O=C(CBr)OCc1ccccc1 [Benzyl bromoacetate],> 90
9,O=c1ccn(C2OC(COP(=O)(O)OC3C(CO)OC(n4ccc(=O)[nH]c4=O)C3O)C(O)C2O)c(=O)[nH]1 (stereo not drawn) [Uricase from Bacillus fastidiosus],> 50
10,Nc1cnn(-c2ccccc2)c(=O)c1Cl [Chloridazon],> 90
11,"c1ccc(-c2cccc(-c3ccccc3)c2)cc1 [1,1':3',1''-Terphenyl]",> 90
12,CCCCCC/C=C/C=O [(E)-2-Nonenal],> 90
13,COc1ccc(C(=O)c2ccc(C)cc2)c(O)c1 [Mexenone],> 90
14,CCCCCCCC1CCCC1=O (stereo not drawn) [2-Heptylcyclopentanone],> 90
15,CCCN(CCC)C(=O)Cc1c(-c2ccc(Cl)cc2)nc2ccc(Cl)cn12 [Alpidem],> 50
16,"COC(=O)c1cc(C(=O)OC)cc(S(=O)(=O)O)c1 [Sodium 3,5-bis(methoxycarbonyl)benzenesulfonate]",> 90
17,CN1C[C@H](CNC(=O)OCc2ccccc2)C[C@@H]2c3cccc4c3c(cn4C)C[C@H]21 [Metergoline],8.07
18,CCCC1C(=O)N2C(N(C)C)=Nc3ccc(C)cc3N2C1=O (stereo not drawn) [Azapropazone],> 20
19,"CC(C)(CO)CO [2,2-Dimethylpropane-1,3-diol]",> 90
20,O=C(O)CCCC/C=C(\c1ccccc1)c1cccnc1 [Isbogrel],> 50
21,CN1C(=O)C[C@@H](C(=O)N[C@@H](Cc2c[nH]cn2)C(=O)N2CCC[C@H]2C(N)=O)NC1=O [Taltirelin],> 50
22,c1ccc(Nc2ccccc2)cc1 [Diphenylamine],> 90
23,NC=O [Formamide],> 100
24,CCC1(c2ccccc2)C(=O)NC(=O)NC1=O [Phenobarbital],> 90
25,CCCCc1c(C)nc(NCC)[nH]c1=O [Ethirimol],> 90

row,Structure (SMILES),CC50 at 24 h [µM]
1,FCOC(C(F)(F)F)C(F)(F)F [Sevoflurane],> 50
2,COCCOC(=O)C1=C(C)NC(C)=C(C(=O)OC(C)C)C1c1cccc([N+](=O)[O-])c1 (stereo not drawn) [Nimodipine],> 50
3,OCCCCCCCl [6-Chlorohexan-1-ol],> 100
4,NCCCNCCCN [Norspermidine],57.5
5,O=C(O)CCCc1ccc(N(CCCl)CCCl)cc1 [Chlorambucil],61
6,C=C1/C(=C\C=C2/CCC[C@]3(C)[C@@H]([C@H](C)/C=C/[C@@H](O)C4CC4)CC[C@@H]23)C[C@@H](O)C[C@@H]1O [Calcipotriene],34.7
7,CC(C)COC(=O)/C=C/c1ccccc1 [Isobutyl 3-phenylacrylate],> 90
8,COc1ccc2[nH]c([S+]([O-])Cc3ncc(C)c(OC)c3C)nc2n1 (stereo not drawn) [Tenatoprazole],41.8
9,C[C@@H]1CN([C@H]2CC[C@](C#N)(c3ccc(F)cc3)CC2)CC[C@]1(C(=O)O)c1ccccc1 [Levocabastine hydrochloride],> 20
10,C=Cc1ccccn1 [2-Vinylpyridine],> 90
11,NC(=O)COCCN1CCN(C(c2ccccc2)c2ccc(Cl)cc2)CC1 (stereo not drawn) [Cetirizine amide dihydrochloride],21.7
12,Nc1nc(-c2ccc([N+](=O)[O-])cc2)cs1 [2-Amino-4-(p-nitrophenyl)thiazole],> 90
13,CC(/C=C/C=C(\C)C(=O)O[C@@H]1O[C@H](CO[C@@H]2O[C@H](CO)[C@@H](O)[C@H](O)[C@H]2O)[C@@H](O)[C@H](O)[C@H]1O)=C\C=C\C=C(C)\C=C\C=C(/C)C(=O)O[C@@H]1O[C@H](CO[C@@H]2O[C@H](CO)[C@@H](O)[C@H](O)[C@H]2O)[C@@H](O)[C@H](O)[C@H]1O [Crocin],> 50
14,C=C(C)C(=O)OCCOCCOC(=O)C(=C)C [Di(ethylene glycol) dimethacrylate],> 90
15,"CC(C)COC(=O)COc1ccc(Cl)cc1Cl [2,4-D-isobutyl]",> 90
16,O=C(O)CCN(C1(C(=O)NO)CCCC1)S(=O)(=O)c1ccc(Oc2ccc(F)cc2)cc1 [CP-471358],> 90
17,"COc1ccc(N)cc1N [2,4-Diaminoanisole sulfate]",24.6
18,CC1(C)CC/C(=C\c2ccc(Cl)cc2)C1(O)Cn1cncn1 (stereo not drawn) [Triticonazole],> 90
19,C=C(C)c1ccccc1 [alpha-Methylstyrene],> 90
20,CCC=CCCOC(=O)c1ccccc1O (stereo in doubt) [(3Z)-Hex-3-en-1-yl salicylate],> 90
21,CCOC(=O)CC(C)=O [Ethyl acetoacetate],> 90
22,CCN(Cc1c(F)cccc1Cl)c1c([N+](=O)[O-])cc(C(F)(F)F)cc1[N+](=O)[O-] [Flumetralin],> 90
23,C/C=C/C=C/CCCCCCCO [Codlelure],79.4

# Same assay, conditions: rat, gh3-tre-luc cells, AC50 (uM) modified / 1000, Tox21_110001=Tox21_112835; viability, 1 nM T3 present, 24 h
row,Structure (SMILES),CC50 at 24 h [µM]
1,C[C@H]1[C@H]2Cc3ccc(O)cc3[C@]1(C)CCN2CCc1ccccc1 [(-)-Phenazocine hydrobromide],48.2

# Same assay, conditions: rat, gh3-tre-luc cells, AC50 (uM) modified / 1000, Tox21_110001=Tox21_112880; viability, 1 nM T3 present, 24 h
row,Structure (SMILES),CC50 at 24 h [µM]
1,"COc1ccc2[nH]cc(CCN(C(C)C)C(C)C)c2c1 [5-Methoxy-N,N-diisopropyltryptamine hydrochloride]",> 100

# Same assay, conditions: rat, gh3-tre-luc cells, AC50 (uM) modified / 1000, Tox21_110001=Tox21_112896; viability, 1 nM T3 present, 24 h
row,Structure (SMILES),CC50 at 24 h [µM]
1,CC(Cc1ccccc1)NCCn1cnc2c1c(=O)n(C)c(=O)n2C (stereo not drawn) [Fenethylline hydrochloride],> 90

# Same assay, conditions: rat, gh3-tre-luc cells, AC50 (uM) modified / 1000, Tox21_110001=Tox21_200205; viability, 1 nM T3 present, 24 h
row,Structure (SMILES),CC50 at 24 h [µM]
1,"CC(Cl)Cl [1,1-Dichloroethane]",> 90

# Same assay, conditions: rat, gh3-tre-luc cells, AC50 (uM) modified / 1000, Tox21_110001=Tox21_200327; viability, 1 nM T3 present, 24 h
row,Structure (SMILES),CC50 at 24 h [µM]
1,"Brc1ccc(Oc2ccc(Br)cc2Br)c(Br)c1 [2,2'4,4'-Tetrabromodiphenyl ether]",83.3

# Same assay, conditions: rat, gh3-tre-luc cells, AC50 (uM) modified / 1000, Tox21_110001=Tox21_200857; viability, 1 nM T3 present, 24 h
row,Structure (SMILES),CC50 at 24 h [µM]
1,NC(N)=[Se] [Selenourea],> 90

# Same assay, conditions: rat, gh3-tre-luc cells, AC50 (uM) modified / 1000, Tox21_110001=Tox21_201783; viability, 1 nM T3 present, 24 h
row,Structure (SMILES),CC50 at 24 h [µM]
1,C/C=C/c1ccc2c(c1)OCO2 [Isosafrole],> 90

# Same assay, conditions: rat, gh3-tre-luc cells, AC50 (uM) modified / 1000, Tox21_110001=Tox21_202947; viability, 1 nM T3 present, 24 h
row,Structure (SMILES),CC50 at 24 h [µM]
1,O=C1C(=O)c2cccc3cccc1c23 [Acenaphthenequinone],> 90
